# Results published in patent US20110091570A1, “Compositions and Devices for Antisepsis and Anticoagulation” (priority 2008, published 2011).
# Key:
# Staphylococcus aureus = conditions: local administration, mouse model [Ref 21]; cited from earlier work
# chronic rhinosinusitis = conditions: pilot study in chronic rhinosinusitis [Ref. 16]; cited from earlier work
# [1] = system: Escherichia coli (ATCC 11229); experiment: Bactericidal activity of NCT without and with heparin (CFU counts); type: cell-based
# Protocol: FIG. 2 presents a plot of bactericidal activity of 1% NCT without and with 125 IE/mL heparin against Escherichia coli ATCC 11229 at pH 7.1 and 37° C. Mean values±standard error of the mean of three independent experiments. P>0.05 between NCT without and NCT with heparin.
# (§1) NCT was dissolved in 0.1 M phosphate buffer containing either 125 IE/mL heparin or no heparin. The final NCT concentration was 1%. Various bacterial species were grown in tryptic soy broth overnight, were washed twice in saline and then suspended in the NCT and NCT/heparin solutions. The species were Staphylococcus aureus (ATCC 25923), Escherichia coli (ATCC 11229), Streptococcus pyogenes, Staphylococcus epidermidis, Pseudomonas aeruginosa, Proteus mirabilis, and methicillin-resistant Staphylococcus aureus. Controls were performed with the foregoing bacterial species suspended in 0.1 M phosphate buffer without additives and in 0.1 M phosphate buffer containing 125 IE/mL heparin. All of the solutions were incubated at 37° C. and pH 7.1. After 1, 3, 5, 8, and 10 minutes, aliquots of 100 μL were removed and diluted 10-fold or 100-fold in 0.6% sodium thiosulfate solution to inactivate the NCT. Aliquots (50 μL) of these dilutions were spread on tryptic soy agar plates. The plates were incubated at 37° C. and colony forming units of bacteria were counted after 24 and 48 hours. […]
# [2] = system: omniresistant Pseudomonas aeruginosa; conditions: NCT irrigations, three patients [Ref 18]; cited from earlier work
# [3] = system: Staphylococcus aureus (ATCC 25923); experiment: Bactericidal activity of NCT without and with heparin (CFU counts); type: cell-based
# Protocol: FIG. 1 presents a plot of bactericidal activity of 1% NCT without and with 125 IE/mL heparin against Staphylococcus aureus ATCC 25923 at pH 7.1 and 37° C. Mean values standard error of the mean of three independent experiments. P>0.05 between NCT without and NCT with heparin.
# as §1
# [4] = 0.1% NCT, virtually identical experiments
# [5] = 1% NCT, 125 IE/mL heparin, pH 7.1, 37° C., 1-10 min
structure (smiles),measurement,setting,value
"O=S(=O)(O)CCNCl [NCT, N-chlorotaurine]",effect on septic arthritis,Staphylococcus aureus,inhibited septic arthritis
same,tolerability,chronic rhinosinusitis,good tolerability
same,influence of heparin on the killing of bacteria,[1]; [4],no statistically significant influence of heparin on the killing of bacteria
same,killing activity of NCT with vs without heparin,[1]; [5],no difference in the killing activity
same,eradication of bacteria from the urinary bladder,[2],possible to eradicate bacteria from the urinary bladder
same,influence of heparin on the killing of bacteria,[3]; [4],no statistically significant influence of heparin on the killing of bacteria
same,killing activity of NCT with vs without heparin,[3]; [5],no difference in the killing activity
